According to article PMC9501899 (Journal of the American Chemical Society, 2022):
Converted amounts (≈) assume the structure as drawn. Where two headings read alike, the source gives them in different places.

Key:
[1] = Mouse liver microsome stability; format: in vitro ADME; details: liver microsomes
Protocol: Testing compound (1.5 μL) or reference compound (500 μM in 5% DMSO and 95% acetonitrile) was mixed with 18.75 μL of 20 mg/mL liver microsome (Corning) and 479.75 μL of potassium phosphate buffer (0.1 M potassium phosphate buffer, 1 mM EDTA, pH 7.4). The reaction was started by mixing 30 μL of the above mixture (prewarmed to 37 °C) with 15 μL of 6 mM NADPH stock solution (prewarmed to 37 °C). After incubating for 5, 15, 30, or 45 min, 135 μL of acetonitrile containing internal standard was added to stop the reaction. For 0 min, the compound and microsome mixture were mixed with acetonitrile first before adding NADPH. After quenching, the reaction mixture was centrifuged, and the supernatant was taken and diluted for LC-MS analysis.

[2] = Pharmacokinetic (PK) study in mice; format: in vivo, C57BL/6 male mice; details: for bioavailability: C57BL/6, plasma, mouse
Protocol: Data are mean (±standard deviation (SD)) from three mice at each time point. […]
PK profiling was outsourced and undertaken by Shanghai ChemPartner Co., Ltd. All animal experiments performed were conducted in compliance with the Institutional Animal Care and Use Committee (IACUC) and the Office of Laboratory Animal Welfare (OLAW) guidelines. Six to eight week old C57BL/6 male mice purchased from Jihui Laboratory Animal Co., Ltd. were used in the study. […] The animals were restrained manually at the designated time points (0.083, 0.25, 0.5, 1, 2, 4, and 8 h); approximately, 110 μL of blood sample was collected via facial vein into K2EDTA tubes. Three mice per time point were used, resulting in a total of 21 mice for each administration route. The blood sample was put on ice and centrifuged at 2000g for 5 min to obtain the plasma sample within 15 min. The plasma, brain, and CSF samples were stored at approximately −70 °C until analysis. A 30 μL aliquot of plasma was added with 200 μL of internal standard (Glipozode, 40 ng/mL) in MeCN with 5% Citri. The mixture was then vortexed for 1 min and then centrifuged for 10 min at 5800 rpm. The supernatant (100 μL) was transferred to a new plate. The solution (1 μL) was injected into LC-MS/MS. LC-MS/MS instrument used: SCIEX LC-MS/MS-49 (Triple Quad 6500+). Data were analyzed by WinNonLin and Microsoft Excel.

[3] = Solubility in phosphate buffer and FeSSIF; format: physicochemical
Protocol: Eight microliters of reference or test compound stock solution (10 mM in DMSO) was added to 792 μL of 100 mM phosphate buffer (pH 7.4) or FeSSIF (pH 5.8). The resulting mixture was shaken for 1 h (1000 rpm) at room temperature and then centrifuged for 10 min (12 000 rpm) to remove the undissolved particles. The supernatant was collected and diluted 10 times and 100 times separately with 100 mM phosphate buffer or FeSSIF. Five microliters of the supernatant samples (no diluted, 10 times diluted, 100 times diluted) were mixed with 95 μL of acetonitrile (containing internal standard) separately before injecting into LC-MS/MS for analysis.

Plasma stability assay = format: in vitro ADME; details: mouse plasma, 37 °C; read-out: T1/2 in mouse plasma
Protocol: Frozen plasma was thawed at 37 °C and centrifuged at 3000 rpm for 8 min to remove clots, and the supernatant was used in the experiment. The pH of the plasma was recorded, and only the pH range between 7.4 and 8 was used. The plasma and compound solution were prewarmed to 37 °C. Ten microliters of prewarmed testing compound or reference compound (procaine) solution (20 μM in 0.05 mM sodium phosphate buffer (pH 7.4) with 0.5% BSA) was mixed with 90 μL of plasma at different time points to allow for 5, 15, 30, 45, and 60 min of incubation time. For 0 min, the plasma was mixed with vehicle only. Acetonitrile was added to the compound and plasma mixture to quench the reaction, and the resulting mixture was centrifuged (5594g for 15 min). The supernatant was taken and diluted before LC-MS analysis.

[4] = Mouse hepatocyte stability; format: in vitro ADME; details: mouse hepatocytes
Protocol: Fifty microliters of prewarmed hepatocytes (2 × 10^6 cells/mL) in suspension media (Krebs–Henseleit buffer (Sigma-Aldrich) containing 5.6 g/L HEPES) was mixed with 50 μL of prewarmed compound dosing solution (2 μM in Krebs–Henseleit buffer with 1% DMSO). After incubating at 37 °C for 15, 30, 60, or 120 min, 100 μL of acetonitrile containing internal standard was added to quench the reaction. For 0 min incubation, acetonitrile was mixed with hepatocytes first before adding the compound solution. After quenching, the mixture was shaken at a vibrator for 10 min (600 rpm/min) and then sonicated for 2 min before centrifugation (5594g for 15 min). The supernatant was taken and diluted for LC-MS analysis.

LRRK2 = LRRK2 degradation in multiple cell lines (summary); format: cell-based
Description: Leucine-rich repeat kinase 2 (LRRK2) is one of the most promising targets for Parkinson’s disease.

LRRK1, VPS35, PPM1H = test: TMT-based global proteomic profiling in WT MEFs, LRRK2-related proteins; format: cell-based, mouse; details: 300 nM, 4 h
[5] = male, C57BL/6, IP 30 mg/kg, mouse plasma
[6] = male, C57BL/6, IV 5 mg/kg, mouse plasma
[7] = male, C57BL/6, PO 30 mg/kg, mouse plasma

Compound `CNc1nc(Nc2ccc(C(=O)N3CCN(C[C@H]4CC[C@H](CSC(C)(C)[C@H](NC(=O)C5(F)CC5)C(=O)N5C[C@H](O)CC5C(=O)NCc5ccc(-c6scnc6C)cc5)CC4)CC3)cc2OC)ncc1Cl` (stereo partly drawn) [XL01126, (2S,4R)-1-((R)-3-((((1R,4R)-4-((4-(4-((5-Chloro-4-(methylamino)pyrimidin-2-yl)amino)-3-methoxybenzoyl)piperazin-1-yl)methyl)cyclohexyl)methyl)thio)-2-(1-fluorocyclopropane-1-carboxamido)-3-methylbutanoyl)-4-hydroxy-N-(4-(4-methylthiazol-5-yl)benzyl)pyrrolidine-2-carboxamide] has a CLint scaled at 1 µM ([1]; pH 7.4) of 1490 mL/min/kg, a half-life at 1 µM ([1]; pH 7.4, read-out: T1/2 in mouse liver microsome) of 3.65 min and a Kp ([2]; male, C57BL/6, mouse, brain, other: IV, mice, single dose IV, IP or PO, read-out: brain-to-plasma ratio) of less than 0.035. For the same compound, the bioavailability ([2]; male, IP 30 mg/kg, read-out: F) was 29.2%, the bioavailability ([2]; male, PO 30 mg/kg, read-out: F, oral bioavailability) was 15% and the AUC(0-inf) [2, 5] was 64100 ng·h/mL. The AUC(0-t) [2, 5] was 41400 ng·h/mL, the Cmax [2, 5] was 7700 ng/mL and the Tmax [2, 5] was 0.25 h. It also gave a half-life [2, 5] of 5.2 h, an AUC(0-inf) [2, 6] of 24000 ng·h/mL and an AUC(0-t) [2, 6] of 23700 ng·h/mL. The MRT [2, 6] was 2.45 h, the clearance [2, 6] was 3.47 mL/min/kg and the half-life [2, 6] was 1.52 h. It also gave a Vd ([2]; male, C57BL/6, IV 5 mg/kg, mouse plasma, read-out: Vss) of 0.511 L/kg, an AUC(0-inf) [2, 7] of 109000 ng·h/mL and an AUC(0-t) [2, 7] of 21300 ng·h/mL. For the same compound, the Cmax [2, 7] was 3620 ng/mL, the Tmax [2, 7] was 2 h and the half-life [2, 7] was 21.9 h. For the same compound, the “presence in brain tissues and CSF (in words)” value ([2]; mice, single dose IV, IP or PO) was “detected in brain tissues and CSF”, the solubility at 1 h ([3]; 100 mM phosphate buffer, pH 7.4, read-out: solubilities in PBS (pH 7.4)) was 0.55 µM (≈ 0.561 µg/mL) and the solubility at 1 h ([3]; FeSSIF, pH 5.8, read-out: solubility in FeSSIF (pH 5.8)) was 26.1 µM (≈ 26.6 µg/mL). For the same compound, the half-life at 2 µM (Plasma stability assay) was 1.8 h, the CLint scaled at 1 µM [4] was 26 mL/min/kg and the half-life at 1 µM ([4]; read-out: T1/2 in mouse hepatocytes) was 5.24 h. The DC50 (LRRK2) was 14 to 72 nM, the Dmax values (LRRK2) was 82 to 90% and the “levels of LRRK1, VPS35 and PPM1H (in words)” value (LRRK1, VPS35, PPM1H) was “remained unaffected”.
